Consider three compounds from patent publication EP3006026A1, “PHARMACEUTICAL COMPOSITION FOR TREATING ANXIETY CONTAINING L-THEANINE AND BAICALEIN” (FB HEALTH S.P.A., priority 2014, dated 2016).

Each structure is given as a SMILES string.

The subject of data set [1] is mice. Put plainly: open field test for sedative or stimulating activity. Type of data set: in vivo. The note with it: 60 minutes after administration, recorded 5 minutes. As to the method:
The mice were placed individually at the centre of the maze facing a closed arm and the number of entries and the time spent in the closed and open arms during an observation period of 6 minutes was recorded. Entries to the arms were defined as the entry of all four paws into an arm [ ]. The time in percentage spent on the open arms (100 x open/total time) was calculated for each animal. We also used the open field test to evaluate possible sedative or stimulating activity of the animals [ ]. The open field consisted of a rectangular opaque grey plastic arena (width 30 cm, length 27 cm, height 30 cm) and was illuminated by six 40W bulbs. The floor of the arena was divided into 6 equidistant rectangles to evaluate the number of times the lines were crossed. […] 60 minutes after oral administration, each mouse was placed at the centre of the arena and recorded for 5 minutes.
The EPM and the open field test were both video recorded using a high resolution video camera WV-CP244 (Panasonic). The videos were analysed using the TopScan Top View Animal Behaviour Analyzing System (version 1.00; Clever Sys Inc.) by an impartial person who has no knowledge of the treatment. […]

In data set [2] the test system is murine model of anxiety. Put plainly: elevated maze plus (EPM) test, murine model of anxiety. The note with it: 60 minutes prior to maze; for percentage of time spent on the closed arms: compared to the control, 6 minutes observation; for time in percentage on the open arms: 10 mg/kg p.o. Type of data set: in vivo, mice. As to the method: The activity of a combination of L-theanine and baicalein was tested in a murine model of anxiety.
The mice were assigned randomly to different treatment groups and subjected to tests in a variable order.
Diazepam (Hoffmann - La Roche) was used as reference product. The diazepam was diluted to a concentration of 1.5 mg/10 ml with deionised water (Millipore quality) containing propylene glycol 0.5% (Sigma-Aldrich). Two different doses (10 mg/kg and 25 mg/kg) of bot. baicalein and L-theanine were prepared dissolving the powder in 10 ml of deionised water with propylene glycol 0.5%. All the solutions were prepared the same day as the tests and administered orally (p.o.) in a volume of 10 ml/kg by body weight of the mice. The control animals received a solution of propylene glycol 0.5%.
The animals of the experiment were treated orally with a carrier, diazepam (1.5 mg/kg, n=8), L-theanine (10 mg/kg, 25 mg/kg, n=8), baicalein (10 mg/kg, 25 mg/kg, n=8) or L-theanine + baicalein, in a ratio 1/1 (10 mg/kg, 25 mg/kg, n=8), 60 minutes prior to evaluation in the maze.
Anxiolytic activity was evaluated using the elevated maze plus (EPM) test. [ ]. The maze was composed of two open arms (31 cm x 5 cm x 1 cm) and two closed arms (31 cm x 5 cm x 15 cm) that extended from a central platform (5 cm x 5 cm) raised to a height of 40 cm from the floor. On the wooden base frame, the closed arms were made of opaque grey plastic, while the open arms were made of the same material with only one slightly raised edge. The EPM was indirectly illuminated by three 40W bulbs.
The mice were placed individually at the centre of the maze facing a closed arm and the number of entries and the time spent in the closed and open arms during an observation period of 6 minutes was recorded. Entries to the arms were defined as the entry of all four paws into an arm [ ]. The time in percentage spent on the open arms (100 x open/total time) was calculated for each animal. We also used the open field test to evaluate possible sedative or stimulating activity of the animals [ ]. The open field consisted of a rectangular opaque grey plastic arena (width 30 cm, length 27 cm, height 30 cm) and was illuminated by six 40W bulbs. The floor of the arena was divided into 6 equidistant rectangles to evaluate the number of times the lines were crossed. Groups of 8 mice were treated with diazepam (1.5 mg/kg, 3 mg/kg p.o.), L-theanine (25 mg/kg, 50 mg/kg n=8), baicalein (25 mg/kg, 50 mg/kg, n=8) or L-theanine + baicalein, in a 1/1 ratio (25 mg/kg, 50 mg/kg, n=8) or a carrier (deionised water with propylene glycol at 0.5% p.o.). All the solutions contained propylene glycol at 0.5% as solubilising substance for diazepam. 60 minutes after oral administration, each mouse was placed at the centre of the arena and recorded for 5 minutes.
The EPM and the open field test were both video recorded using a high resolution video camera WV-CP244 (Panasonic).
Statistical analysis of the data was performed using one-way analysis of variance (ANOVA) followed by the Student-Newman-Keuls multiple comparison test. In all cases the differences were considered significant if p < 0.05.

`CN1C(=O)CN=C(c2ccccc2)c2cc(Cl)ccc21` [diazepam]: in data set [1] (1.5 mg/kg p.o.), the “sedation in the open field test” value was “caused significant sedation”. Moreover, the “sedation in the open field test” value in data set [1] (3 mg/kg p.o.) was “caused significant sedation”. In data set [2] (diazepam 1.5 mg/kg p.o.), the “number of entries to the open arms” value is on record as “greater” and the “percentage of time spent on the closed arms” value (shortened to “percentage of time spent”) is recorded as “significant increase”.

On to `CCNC(=O)CC[C@H](N)C(=O)O` [L-theanine, N-ethyl-L-glutamine], for which the “time in percentage on the open arms” value in data set [2] is “did not show any increase”. For the same compound, the “percentage of time spent” value in data set [2] (25 mg/kg p.o.) is given as “significant increase”.

As to `O=c1cc(-c2ccccc2)oc2cc(O)c(O)c(O)c12` [baicalein, 5,6,7-trihydroxy-2-phenyl-chromen-4-one], the “time in percentage on the open arms” value in data set [2] is “did not show any increase”. Besides, the “percentage of time spent” value in data set [2] (25 mg/kg p.o.) is recorded as “significant increase”.
